Our source for the Activity values is ChEMBL document CHEMBL4043156, “Functionalization of peptide nucleolipid bioconjugates and their structure anti-cancer activity relationship studies” (Bioorg Med Chem Lett, 2017).

Experiment [1] concerns MM1.S. In words: Induction of apoptosis in human MM1S cells assessed as increase in necrotic cells at 2.5 uM after 24 hrs by Annexin V-FITC/propidium iodide based FACS analysis. In kind it is functional, cell-based. For orientation: In flow cytometry, cells or beads pass a laser one at a time.
Experiment [2] relates to MM1.S. Kind of experiment: Induction of apoptosis in human MM1S cells at 2.5 uM after 24 hrs by Annexin V-FITC/propidium iodide based FACS analysis. The class given is functional, cell-based.

Active and inactive are the calls of the source. The calls are words filed in the database; no cut-off is given here.

Regarding `Cc1cn([C@H]2C[C@H](OCCNCc3c[nH]cn3)[C@@H](C(=O)NCCCC[C@@H](NC(=O)[C@@H](C)NC(=O)[C@@H](CCCCN)NC(=O)[C@@H](C)NC(=O)[C@@H](CC(C)C)NC(=O)[C@@H](CCCCN)NC(=O)[C@@H](C)NC(=O)[C@@H](CC(C)C)NC(=O)[C@@H](CCCCN)NC(=O)CCCCCN)C(=O)O)O2)c(=O)[nH]c1=O`, the outcome with MM1.S [1] and with MM1.S [2] was Active.
Take `Cc1cn([C@H]2C[C@H](OCCNCCCNCCCCNCCCN)[C@@H](C(=O)NCCCC[C@@H](NC(=O)[C@@H](C)NC(=O)[C@@H](CCCCN)NC(=O)[C@@H](C)NC(=O)[C@@H](CC(C)C)NC(=O)[C@@H](CCCCN)NC(=O)[C@@H](C)NC(=O)[C@@H](CC(C)C)NC(=O)[C@@H](CCCCN)NC(=O)CCCCCN)C(=O)O)O2)c(=O)[nH]c1=O`: the result in the experiment on MM1.S [1] and in the experiment with MM1.S [2] was inactive.
For `CNCCO[C@H]1C[C@H](n2cc(C)c(=O)[nH]c2=O)O[C@@H]1C(=O)NCCCC[C@@H](NC(=O)[C@@H](C)NC(=O)[C@@H](CCCCN)NC(=O)[C@@H](C)NC(=O)[C@@H](CC(C)C)NC(=O)[C@@H](CCCCN)NC(=O)[C@@H](C)NC(=O)[C@@H](CC(C)C)NC(=O)[C@@H](CCCCN)NC(=O)CCCCCN)C(=O)O`, the outcome with MM1.S [1] and in the experiment on MM1.S [2] was inactive.
As for `CCCCCCCCNCCO[C@H]1C[C@H](n2cc(C)c(=O)[nH]c2=O)O[C@@H]1C(=O)NCCCC[C@@H](NC(=O)[C@@H](C)NC(=O)[C@@H](CCCCN)NC(=O)[C@@H](C)NC(=O)[C@@H](CC(C)C)NC(=O)[C@@H](CCCCN)NC(=O)[C@@H](C)NC(=O)[C@@H](CC(C)C)NC(=O)[C@@H](CCCCN)NC(=O)CCCCCN)C(=O)O`, the outcome in the experiment on MM1.S [1] and in the experiment with MM1.S [2] was inactive.
Regarding `Cc1cn([C@H]2C[C@H](OCCNCCCN)[C@@H](C(=O)NCCCC[C@@H](NC(=O)[C@@H](C)NC(=O)[C@@H](CCCCN)NC(=O)[C@@H](C)NC(=O)[C@@H](CC(C)C)NC(=O)[C@@H](CCCCN)NC(=O)[C@@H](C)NC(=O)[C@@H](CC(C)C)NC(=O)[C@@H](CCCCN)NC(=O)CCCCCN)C(=O)O)O2)c(=O)[nH]c1=O`, the outcome in the experiment on MM1.S [1] and in the experiment with MM1.S [2] was inactive.
